Source: patent US12209154B2, “Polymer material” (MENICON CO., LTD., priority 2019, dated 2025)

Assay: Solubility of compatibilizing monomer in water at 25° C.
Format: physicochemical

In the case of `C=C(C)C(=O)OCC(O)COC(=O)C12CC3CC(CC(C3)C1)C2` (stereo not shown) [AdaCO(OH)MA], the solubility is reported as < 10000 µg/mL.

With `C=C(C)C(=O)OCC(O)CC(F)(F)C(F)(F)C(F)(F)C(F)(F)F` (stereo not shown) [C4F9CH2CH(OH)CHMA] the solubility was < 10000 µg/mL.

In the case of `C=C(C)C(=O)OCC(O)COC(=O)C1CCCCC1` (stereo not shown) [CyCO(OH)MA], the solubility is reported as < 10000 µg/mL.

For `C=C(C)C(=O)OC12CC3CC(O)(CC(O)(C3)C1)C2` [DHADM], the solubility was < 10000 µg/mL.

With `C=C(C)C(=O)OCC(O)COCC(CC)CCCC` (stereo not shown) [EH(OH)MA] the solubility was < 10000 µg/mL.

With `C=CC(=O)OC12CC3CC(CC(O)(C3)C1)C2` [HADA] the solubility was < 10000 µg/mL.

In the case of `C=C(C)C(=O)OCC(O)COC(=O)C(O)CCCCCC` (stereo not shown) [MA(OH)OCO(OH)Hp], the solubility is reported as < 10000 µg/mL.

In the case of `C=C(C)C(=O)OCC(O)COC(C)C` (stereo not shown) [iPr(OH)MA], the solubility is reported as < 10000 µg/mL.

For `C=C(C)C(=O)OCC(O)COC(C)(C)C` (stereo not shown) [tBu(OH)MA], the solubility was < 10000 µg/mL.

For `C=C(C)C(=O)OCC(O)COC(=O)C(C)(C)C` (stereo not shown) [tBuCO(OH)MA], the solubility was < 10000 µg/mL.
